Data taken from PubChem BioAssay AID1918957 (Molecular Pharmacology Branch, DTP, NCI, 2023).
pIC50: −log10 of the molar value.

System: NCI-H1876 complex spheroid viability
Experiment: Anticancer human tumor NCI-H1876 cell line growth inhibition [LSD1];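 note: spheroids exposed to compounds for one week before readout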;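 for viability, T/C: 100% = DMSO vehicle-treated spheroids so lower means fewer viable cells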
Conditions: for pIC50: curve of first compound; for viability, T/C: stronger effect = lower value; active = viability on the fitted dose curve at most 10% of control; inactive = the rest
Procedure, shortened: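 Drug combinations with the LSD1 inhibitor iadademstat tested on tumor cells co-cultured as spheroids with endothelial cells and mesenchymal stem cells. Concentrations descended in half-log increments from clinical Cmax or 10 microM.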

[1] = second compound 0.1 µM, first compound 0.0316 µM
[2] = second compound 0.1 µM, first compound 0.1 µM
[3] = second compound 0.1 µM, first compound 0.316 µM
[4] = second compound 0.1 µM, first compound 1 µM
[5] = second compound 0.1 µM, first compound 3.16 µM
[6] = second compound 0.1 µM, first compound 10 µM
[7] = second compound 0.316 µM, first compound 0.0316 µM
[8] = second compound 0.316 µM, first compound 0.1 µM
[9] = second compound 0.316 µM, first compound 0.316 µM
[10] = second compound 0.316 µM, first compound 1 µM
[11] = second compound 0.316 µM, first compound 3.16 µM
[12] = second compound 0.316 µM, first compound 10 µM
[13] = second compound 1 µM, first compound 0.0316 µM
[14] = second compound 1 µM, first compound 0.1 µM
[15] = second compound 1 µM, first compound 0.316 µM
[16] = second compound 1 µM, first compound 1 µM
[17] = second compound 1 µM, first compound 3.16 µM
[18] = second compound 1 µM, first compound 10 µM
[19] = second compound 3.16 µM, first compound 0.0316 µM
[20] = second compound 3.16 µM, first compound 0.1 µM
[21] = second compound 3.16 µM, first compound 0.316 µM
[22] = second compound 3.16 µM, first compound 1 µM
[23] = second compound 3.16 µM, first compound 3.16 µM
[24] = second compound 3.16 µM, first compound 10 µM
[25] = second compound 10 µM, first compound 0.0316 µM
[26] = second compound 10 µM, first compound 0.1 µM
[27] = second compound 10 µM, first compound 0.316 µM
[28] = second compound 10 µM, first compound 1 µM
[29] = second compound 10 µM, first compound 3.16 µM
[30] = second compound 10 µM, first compound 10 µM
[31] = second compound 0.1 µM, first compound 0.00316 µM
[32] = second compound 0.1 µM, first compound 0.01 µM
[33] = second compound 0.316 µM, first compound 0.00316 µM
[34] = second compound 0.316 µM, first compound 0.01 µM
[35] = second compound 1 µM, first compound 0.00316 µM
[36] = second compound 1 µM, first compound 0.01 µM
[37] = second compound 3.16 µM, first compound 0.00316 µM
[38] = second compound 3.16 µM, first compound 0.01 µM
[39] = second compound 10 µM, first compound 0.00316 µM
[40] = second compound 10 µM, first compound 0.01 µM

CC1COCCN1c1cc(C2(S(C)(=N)=O)CC2)nc(-c2ccnc3[nH]ccc23)n1 (stereo not given) + NC1CCC(NC2CC2c2ccccc2)CC1
inactive: viability, T/C [1] 115% | viability, T/C [2] 116% | viability, T/C [3] 115% | viability, T/C [4] 124% | viability, T/C [5] 91.6% | viability, T/C [6] 35.9% | viability, T/C [7] 119% | viability, T/C [8] 129% | viability, T/C [9] 117% | viability, T/C [10] 105% | viability, T/C [11] 86.2% | viability, T/C [12] 30.7% | viability, T/C [13] 118% | viability, T/C [14] 116% | viability, T/C [15] 114% | viability, T/C [16] 113% | viability, T/C [17] 86.6% | viability, T/C [18] 30.7% | viability, T/C [19] 116% | viability, T/C [20] 130% | viability, T/C [21] 126% | viability, T/C [22] 110% | viability, T/C [23] 80.6% | viability, T/C [24] 28.8% | viability, T/C [25] 114% | viability, T/C [26] 116% | viability, T/C [27] 113% | viability, T/C [28] 101% | viability, T/C [29] 73.7% | viability, T/C [30] 24.2%
5.26: pIC50 (second compound 10 µM)
5.13: pIC50 (second compound 0.1 µM)
5.18: pIC50 (second compound 0.316 µM)
5.17: pIC50 (second compound 1 µM)
5.21: pIC50 (second compound 3.16 µM)

Nc1ccccc1NC(=O)c1ccc(CNC(=O)OCc2cccnc2)cc1 + NC1CC1c1ccc(-c2cccc(O)c2)cc1
7.18: pIC50 (second compound 0.316 µM)
active: viability, T/C (second compound 0.1 µM, first compound 0.3 µM) 9.94% | viability, T/C (second compound 0.1 µM, first compound 0.949 µM) 2.94% | viability, T/C (second compound 0.1 µM, first compound 3 µM) 0.49% | viability, T/C (second compound 0.316 µM, first compound 0.949 µM) 3.03% | viability, T/C (second compound 0.316 µM, first compound 3 µM) 0.41% | viability, T/C (second compound 1 µM, first compound 0.3 µM) 8.61% | viability, T/C (second compound 1 µM, first compound 0.949 µM) 2.73% | viability, T/C (second compound 1 µM, first compound 3 µM) 0.38% | viability, T/C (second compound 3.16 µM, first compound 0.3 µM) 8.61% | viability, T/C (second compound 3.16 µM, first compound 0.949 µM) 2.69% | viability, T/C (second compound 3.16 µM, first compound 3 µM) 0.45% | viability, T/C (second compound 10 µM, first compound 0.949 µM) 2.64% | viability, T/C (second compound 10 µM, first compound 3 µM) 0.52%
7.19: pIC50 (second compound 3.16 µM)
inactive: viability, T/C (second compound 0.1 µM, first compound 0.00949 µM) 91.1% | viability, T/C (second compound 0.1 µM, first compound 0.03 µM) 88.8% | viability, T/C (second compound 0.1 µM, first compound 0.0949 µM) 43.1% | viability, T/C (second compound 0.316 µM, first compound 0.00949 µM) 83.6% | viability, T/C (second compound 0.316 µM, first compound 0.03 µM) 71.9% | viability, T/C (second compound 0.316 µM, first compound 0.0949 µM) 40.9% | viability, T/C (second compound 0.316 µM, first compound 0.3 µM) 9.16% | viability, T/C (second compound 1 µM, first compound 0.00949 µM) 85.1% | viability, T/C (second compound 1 µM, first compound 0.03 µM) 75.5% | viability, T/C (second compound 1 µM, first compound 0.0949 µM) 34.4% | viability, T/C (second compound 3.16 µM, first compound 0.00949 µM) 84.6% | viability, T/C (second compound 3.16 µM, first compound 0.03 µM) 76% | viability, T/C (second compound 3.16 µM, first compound 0.0949 µM) 37.3% | viability, T/C (second compound 10 µM, first compound 0.00949 µM) 78.6% | viability, T/C (second compound 10 µM, first compound 0.03 µM) 70.5% | viability, T/C (second compound 10 µM, first compound 0.0949 µM) 41.5% | viability, T/C (second compound 10 µM, first compound 0.3 µM) 13.3%
7.17: pIC50 (second compound 10 µM)
7.21: pIC50 (second compound 1 µM)
7.09: pIC50 (second compound 0.1 µM)

CC1COCCN1c1cc(C2(S(C)(=N)=O)CC2)nc(-c2ccnc3[nH]ccc23)n1 (stereo not given) + NC1CC1c1ccc(-c2cccc(O)c2)cc1
5.20: pIC50 (second compound 3.16 µM)
5.25: pIC50 (second compound 10 µM)
inactive: viability, T/C [1] 110% | viability, T/C [2] 114% | viability, T/C [3] 112% | viability, T/C [4] 111% | viability, T/C [5] 94.4% | viability, T/C [6] 28.4% | viability, T/C [7] 119% | viability, T/C [8] 111% | viability, T/C [9] 113% | viability, T/C [10] 118% | viability, T/C [11] 88.5% | viability, T/C [12] 27.5% | viability, T/C [13] 124% | viability, T/C [14] 119% | viability, T/C [15] 118% | viability, T/C [16] 111% | viability, T/C [17] 96.1% | viability, T/C [18] 28% | viability, T/C [19] 114% | viability, T/C [20] 126% | viability, T/C [21] 120% | viability, T/C [22] 111% | viability, T/C [23] 78.4% | viability, T/C [24] 30.3% | viability, T/C [25] 112% | viability, T/C [26] 112% | viability, T/C [27] 114% | viability, T/C [28] 99.8% | viability, T/C [29] 70.8% | viability, T/C [30] 29.4%
5.16: pIC50 (second compound 0.1 µM) | pIC50 (second compound 1 µM)
5.18: pIC50 (second compound 0.316 µM)

O=C(C=Cn1cnc(-c2cc(C(F)(F)F)cc(C(F)(F)F)c2)n1)NNc1cnccn1 + NC1CC1c1ccc(-c2cccc(O)c2)cc1
7.10: pIC50 (second compound 0.316 µM)
7.11: pIC50 (second compound 0.1 µM)
7.07: pIC50 (second compound 3.16 µM)
inactive: viability, T/C [31] 96.7% | viability, T/C [32] 97.2% | viability, T/C [1] 77.9% | viability, T/C [2] 42.8% | viability, T/C [3] 16.4% | viability, T/C [4] 11.7% | viability, T/C [33] 105% | viability, T/C [34] 104% | viability, T/C [7] 81.8% | viability, T/C [8] 42% | viability, T/C [9] 16.4% | viability, T/C [10] 11.3% | viability, T/C [35] 97.5% | viability, T/C [36] 103% | viability, T/C [13] 83.1% | viability, T/C [14] 44.1% | viability, T/C [15] 16.7% | viability, T/C [16] 12.9% | viability, T/C [37] 97.1% | viability, T/C [38] 99.5% | viability, T/C [19] 78.7% | viability, T/C [20] 46.9% | viability, T/C [21] 18.2% | viability, T/C [22] 14.1% | viability, T/C [39] 96% | viability, T/C [40] 92.4% | viability, T/C [25] 81.1% | viability, T/C [26] 53.5% | viability, T/C [27] 22.8% | viability, T/C [28] 18.4%
7.08: pIC50 (second compound 1 µM)
6.96: pIC50 (second compound 10 µM)

CC(C)CC(NC(=O)CNC(=O)c1cc(Cl)ccc1Cl)B1OC(=O)CC(CC(=O)O)(C(=O)O)O1 (stereo not given) + NC1CC1c1ccc(-c2cccc(O)c2)cc1
8.13: pIC50 (second compound 0.316 µM) | pIC50 (second compound 1 µM) | pIC50 (second compound 3.16 µM)
inactive: viability, T/C (second compound 0.1 µM, first compound 0.000316 µM) 98.9% | viability, T/C (second compound 0.1 µM, first compound 0.001 µM) 103% | viability, T/C [31] 105% | viability, T/C [32] 34.6% | viability, T/C (second compound 0.316 µM, first compound 0.000316 µM) 108% | viability, T/C (second compound 0.316 µM, first compound 0.001 µM) 101% | viability, T/C [33] 97.3% | viability, T/C [34] 33.7% | viability, T/C (second compound 1 µM, first compound 0.000316 µM) 105% | viability, T/C (second compound 1 µM, first compound 0.001 µM) 103% | viability, T/C [35] 102% | viability, T/C [36] 32.1% | viability, T/C (second compound 3.16 µM, first compound 0.000316 µM) 110% | viability, T/C (second compound 3.16 µM, first compound 0.001 µM) 106% | viability, T/C [37] 98.4% | viability, T/C [38] 32.5% | viability, T/C (second compound 10 µM, first compound 0.000316 µM) 103% | viability, T/C (second compound 10 µM, first compound 0.001 µM) 102% | viability, T/C [39] 87% | viability, T/C [40] 29.6%
active: viability, T/C [1] 1.61% | viability, T/C [2] 0.3% | viability, T/C [7] 1.47% | viability, T/C [8] 0.31% | viability, T/C [13] 1.86% | viability, T/C [14] 0.31% | viability, T/C [19] 1.08% | viability, T/C [20] 0.3% | viability, T/C [25] 0.75% | viability, T/C [26] 0.39%
8.18: pIC50 (second compound 10 µM)
8.11: pIC50 (second compound 0.1 µM)
